The record followed here is patent US20260242398A1, “BENZOPYRIMIDIN-4(3H)-ONES AS PI3K INHIBITORS” (OnKure, Inc., priority 2022, published 2026).

Molecules are shown by their SMILES. Where two headings read alike, the source gives them in different places. Where only a bound is given, the exact number is not on record here.

Holding throughout (type): cell-based
Experiment [1] concerns T47D cells expressing mutant PI3Ka (H1047R). Kind of experiment: In vitro cell proliferation (CellTiter-Glo, 72 hours), T47D cells. Particulars: inhibition of proliferation, read-out: Avg T-47D EC50. As to the method: (§1) In Vitro Cell Proliferation: Determination of EC50 Values for Inhibition of Proliferation in T47D Cells Expressing Mutant PI3Ka (H1047R) Mutation and SKBR3 Cells Express WT PI3Ka.
(§2) T47D or SKBR3 cells were trypsinized, resuspended in culture media and seeded onto assay ready plates. T47D culture media consisted of RPMI, 10% FBS and Insulin (0.2 units/mL). SKBR3 culture media consisted of McCoys 5a and 10% FBS. Cells were seeded at a density of 1,500 cells/well and dispensed in 50 uL onto 384 well assay ready plates (Corning, 89089-790). Assay ready plates had previously been stamped with 10-point dilutions of compounds of interest, as well as controls. The Echo655 is used to stamp plates at 40 nL of compound or DMSO. Cells were grown for 72 hours at 37° Celsius and 5% CO2. After 72 hours, cells were equilibrated at room temperature for 15 minutes. 30 uL of CellTiter-Glo reagent is added to the plate, which is then shaken for 30 minutes at temperature at 300-500 rpm. Cells are then read on an Envision plate reader. The percentage of inhibition of proliferation was calculated using the following formula: % Inhibition=100×(LumD−LumSample)/(LumD−LumInh), where D is obtained from cells treated with 0.1% DMSO only; Inh is obtained from cells treated with 10 uM Alpelisib. The effective concentration achieving 50% inhibition of proliferation (EC50) is calculated by fitting the Curve using XWfit (v5.3.1.3), equation 201: Y=Bottom+(Top−Bottom)/(1+10^((Log EC50−X)*HillSlope)).

For experiment [2], the system named is phosphorylation of AKT (pAKT) in SKBR3 cells express WT PI3Ka. Kind of experiment: In vitro cell pAKT (Ser473) HTRF, SKBR3 cells. Particulars: inhibition of pAKT. On the procedure: (§3) In Vitro Cell pAKT: Determination of IC50 Values for Inhibition of Phosphorylation of AKT (pAKT) in T47D Cells Expressing Mutant PI3Ka (H1047R) Mutation and SKBR3 Cells Express WT PI3Ka.
(§4) T47D or SKBR3 cells were trypsinized, resuspended in culture media and seeded onto assay ready plates. T47D culture media consisted of RPMI, 10% FBS and Insulin (0.2 units/mL). SKBR3 culture media consisted of McCoy's 5a and 10% FBS. Cells were seeded at a density of 5000 cells/well and dispensed in 12.5 uL onto 384 well assay ready plates (Perkin Elmer, 6008238)). Assay ready plates had previously been stamped with 10-point dilutions of compounds of interest, as well as controls. The Echo655 is used to stamp plates at 12.5 nL of compound or DMSO. Cells were grown for 6 hour at 37° Celsius and 5% CO2. After 6 hour, 4 uL of Lysis buffer reagent was added to the plate, which was then centrifuged for 1 minute at 1000 rpm. Then the plate was incubated at room temperature for 30 minutes. After 30 minutes, 4 uL of antibody mix containing Eu Cryptate, d2 Cryptate, and detection buffer, was added to the plate. The plate was centrifuged for 1 minute at 1000 rpm and then incubated overnight at room temperature. The plate was read on an Envision plate reader using the HTRF protocol. The percentage of inhibition of AKT phosphorylation was calculated using the following formula: % Inhibition=100×(pAKTHC−pAKTSample)/(pAKTHC−pAKTLC)), where pAKTHC is obtained from cells treated with 0.1% DMSO only; pAKTLC is obtained from cells treated with 10 uM Alpelisib. The IC50 (concentration achieving 50% inhibition of pAKT) is calculated by fitting the Curve using XWfit (v5.3.1.3), equation 201: Y=Bottom+(Top−Bottom)/(1+10^((Log IC50−X)*HillSlope)).
On the technique in general: In TR-FRET formats the signal depends on donor and acceptor labels being close together.

Experiment [3] relates to SKBR3 cells express WT PI3Ka. Kind of experiment: In vitro cell proliferation (CellTiter-Glo, 72 hours), SKBR3 cells. Particulars: inhibition of proliferation. On the procedure:
as §1, §2
A general note: In ATP-based viability assays light output follows the ATP content of the culture.

The subject of experiment [4] is phosphorylation of AKT (pAKT) in T47D cells expressing mutant PI3Ka (H1047R). Kind of experiment: In vitro cell pAKT (Ser473) HTRF, T47D cells. Particulars: inhibition of pAKT, read-out: Avg T-47D IC50. On the procedure: as §3, §4

For `Cc1cc(C(C)Nc2ccc(Cl)cc2C(=O)O)c2nc(N3Cc4ccc(F)cc4C3)n(C)c(=O)c2c1` (single isomer, unassigned) [Example 13, 5-chloro-2-((1-(2-(5-fluoroisoindolin-2-yl)-3,6-dimethyl-4-oxo-3,4-dihydroquinazolin-8-yl)ethyl)amino)benzoic acid], the EC50 in experiment [1] is 2000 to 15000 nM; in experiment [3], over 15 µM. Further, the IC50 was over 15 µM in experiment [2] (Homo sapiens, SK-BR-3, 6 h) and over 15000 nM in experiment [4] (6 hour).
In the case of `Cc1cc(C(C)Nc2ccc(Cl)cc2C(=O)O)c2nc(N3Cc4ccc(F)cc4C3)n(C)c(=O)c2c1` (single isomer, unassigned) [Example 14, 5-chloro-2-((1-(2-(5-fluoroisoindolin-2-yl)-3,6-dimethyl-4-oxo-3,4-dihydroquinazolin-8-yl)ethyl)amino)benzoic acid], the EC50 in experiment [1] was in the range of 1 to 500 nM; in experiment [3], 2 to 15 µM. The results for the IC50 in experiment [2] (6 hour) and in experiment [4] (6 hour) were over 15 µM and 1000 to 5000 nM, respectively.
For `Cc1cc(C(C)Nc2ccccc2C(=O)O)c2nc(N3Cc4ccc(C#N)cc4C3)n(C)c(=O)c2c1` (single isomer, unassigned) [Example 17, 2-((1-(2-(5-cyanoisoindolin-2-yl)-3,6-dimethyl-4-oxo-3,4-dihydroquinazolin-8-yl)ethyl)amino)benzoic acid], the EC50 is 1 to 500 nM in experiment [1] and over 15 µM in experiment [3] (Homo sapiens, SK-BR-3, 72 h). For the same compound, the IC50 was over 15 µM in experiment [2] (Homo sapiens, SK-BR-3, 6 h) and 1 to 1000 nM in experiment [4] (6 hour).
Turning to `Cc1cc(C(C)Nc2ccccc2C(=O)O)c2nc(N3Cc4ccc(C#N)cc4C3)n(C)c(=O)c2c1` (single isomer, unassigned) [Example 18, 2-((1-(2-(5-cyanoisoindolin-2-yl)-3,6-dimethyl-4-oxo-3,4-dihydroquinazolin-8-yl)ethyl)amino)benzoic acid], the EC50 in experiment [1] was over 15000 nM; in experiment [3] it was over 15 µM. Further, the IC50 is over 15 µM in experiment [2] (6 hour) and over 15000 nM in experiment [4] (6 hour).
Regarding `Cc1cc2c(=O)n(C)c(N3CCN(CC(F)(F)F)CC3)nc2c(C(C)Nc2ccccc2C(=O)O)c1F` (single isomer, unassigned) [Example 20, 2-((1-(7-fluoro-3,6-dimethyl-4-oxo-2-(4-(2,2,2-trifluoroethyl)piperazin-1-yl)-3,4-dihydroquinazolin-8-yl)ethyl)amino)benzoic acid], the EC50 is 500 to 2000 nM in experiment [1] and over 15 µM in experiment [3] (Homo sapiens, SK-BR-3, 72 h). For the same compound, the IC50 in experiment [2] (Homo sapiens, SK-BR-3, 6 h) is over 15 µM; in experiment [4] (6 hour) it was 1 to 1000 nM.
As for `Cc1cc2c(=O)n(C)c(N3CCN(CC(F)(F)F)CC3)nc2c(C(C)Nc2ccccc2C(=O)O)c1F` (single isomer, unassigned) [Example 21, 2-((1-(7-fluoro-3,6-dimethyl-4-oxo-2-(4-(2,2,2-trifluoroethyl)piperazin-1-yl)-3,4-dihydroquinazolin-8-yl)ethyl)amino)benzoic acid], the EC50 in experiment [1] is over 15000 nM; in experiment [3], over 15 µM. Besides, the IC50 was over 15 µM in experiment [2] (6 hour) and over 15000 nM in experiment [4] (6 hour).
For the compound `CC(Nc1ccccc1C(=O)O)c1cc(Cl)cc2c(=O)n(C)c(N3CCC(C)(C)CC3)nc12` (single isomer, unassigned) [Example 22, 2-((1-(6-chloro-2-(4,4-dimethylpiperidin-1-yl)-3-methyl-4-oxo-3,4-dihydroquinazolin-8-yl)ethyl)amino)benzoic acid], the EC50 is 500 to 2000 nM in experiment [1] and over 15 µM in experiment [3]. Further, the IC50 in experiment [2] (Homo sapiens, SK-BR-3, 6 h) was over 15 µM; in experiment [4] (6 hour) it was 1 to 1000 nM.
Regarding `CC(Nc1ccccc1C(=O)O)c1cc(Cl)cc2c(=O)n(C)c(N3CCC(C)(C)CC3)nc12` (single isomer, unassigned) [Example 23, 2-((1-(6-chloro-2-(4,4-dimethylpiperidin-1-yl)-3-methyl-4-oxo-3,4-dihydroquinazolin-8-yl)ethyl)amino)benzoic acid], the EC50 in experiment [1] is 2000 to 15000 nM; in experiment [3] it was 2 to 15 µM. Besides, the IC50 in experiment [2] (6 hour) was over 15 µM; in experiment [4] (6 hour) it was over 15000 nM.
Regarding `CC(Nc1ccc(F)cc1C(=O)O)c1cc(Cl)cc2c(=O)n(C)c(N3CCN(CC(F)(F)F)CC3)nc12` (single isomer, unassigned) [Example 24, 2-((1-(6-chloro-3-methyl-4-oxo-2-(4-(2,2,2-trifluoroethyl)piperazin-1-yl)-3,4-dihydroquinazolin-8-yl)ethyl)amino)-5-fluorobenzoic acid], the EC50 in experiment [1] fell in the range of 1 to 500 nM; in experiment [3] (Homo sapiens, SK-BR-3, 72 h), 2 to 15 µM. In addition, the IC50 in experiment [2] (Homo sapiens, SK-BR-3, 6 h) was over 15 µM; in experiment [4] (6 hour), 1 to 1000 nM.
Take `CC(Nc1ccc(F)cc1C(=O)O)c1cc(Cl)cc2c(=O)n(C)c(N3CCN(CC(F)(F)F)CC3)nc12` (single isomer, unassigned) [Example 25, 2-((1-(6-chloro-3-methyl-4-oxo-2-(4-(2,2,2-trifluoroethyl)piperazin-1-yl)-3,4-dihydroquinazolin-8-yl)ethyl)amino)-5-fluorobenzoic acid]: the concentration giving a half-maximal response (EC50) in experiment [1] is 2000 to 15000 nM; in experiment [3], 2 to 15 µM. For the same compound, the IC50 in experiment [2] (6 hour) was over 15 µM; in experiment [4] (6 hour), over 15000 nM.
For `CC(Nc1ccccc1C(=O)O)c1cc(Cl)cc2c(=O)n(C)c(N3CCN(CC(F)(F)F)CC3)nc12` (single isomer, unassigned) [Example 26, 2-((1-(6-chloro-3-methyl-4-oxo-2-(4-(2,2,2-trifluoroethyl)piperazin-1-yl)-3,4-dihydroquinazolin-8-yl)ethyl)amino)benzoic acid], the EC50 in experiment [1] is 500 to 2000 nM; in experiment [3] (Homo sapiens, SK-BR-3, 72 h), over 15 µM. Further, the IC50 was over 15 µM in experiment [2] (Homo sapiens, SK-BR-3, 6 h) and 1 to 1000 nM in experiment [4] (6 hour).
For `CC(Nc1ccccc1C(=O)O)c1cc(Cl)cc2c(=O)n(C)c(N3CCN(CC(F)(F)F)CC3)nc12` (single isomer, unassigned) [Example 27, 2-((1-(6-chloro-3-methyl-4-oxo-2-(4-(2,2,2-trifluoroethyl)piperazin-1-yl)-3,4-dihydroquinazolin-8-yl)ethyl)amino)benzoic acid], the 50% effective concentration (EC50) is over 15000 nM in experiment [1] and over 15 µM in experiment [3]. In addition, the IC50 in experiment [2] (6 hour) is over 15 µM; in experiment [4] (6 hour) it was over 15000 nM.
With `Cc1cc(C(C)Nc2ccc(F)cc2C(=O)O)c2nc(N3CCC(C)(C)CC3)n(C)c(=O)c2c1` (single isomer, unassigned) [Example 30, 2-((1-(2-(4,4-dimethylpiperidin-1-yl)-3,6-dimethyl-4-oxo-3,4-dihydroquinazolin-8-yl)ethyl)amino)-5-fluorobenzoic acid], the concentration giving a half-maximal response (EC50) in experiment [1] is 2000 to 15000 nM; in experiment [3], 2 to 15 µM. The IC50 in experiment [2] (6 hour) is over 15 µM; in experiment [4] (6 hour) it was over 15000 nM.
`Cc1cc(C(C)Nc2ccccc2C(=O)O)c2nc(SCc3ccc(Cl)c(OC(F)(F)F)c3)n(C)c(=O)c2c1` (single isomer, unassigned) [Example 31, 2-((1-(2-((4-chloro-3-(trifluoromethoxy)benzyl)thio)-3,6-dimethyl-4-oxo-3,4-dihydroquinazolin-8-yl)ethyl)amino)benzoic acid]: the EC50 was in the range of 2000 to 15000 nM in experiment [1] (Homo sapiens, T47D, 72 h) and 2 to 15 µM in experiment [3] (Homo sapiens, SK-BR-3, 72 h). Further, the IC50 in experiment [2] (Homo sapiens, SK-BR-3, 6 h) is over 15 µM; in experiment [4] (Homo sapiens, T47D, 6 h), over 15000 nM.

What is called EC50 is the concentration at which the effect is half-maximal. Usually IC50 stands for the concentration needed to halve the response being measured.
